Source: ChEMBL document CHEMBL1152735, “Synthesis and antiprotozoal activity of novel 1-methylbenzimidazole derivatives” (Bioorg Med Chem, 2009)

Legend:
[1] = tested on: Giardia intestinalis; assay: Antiprotozoal activity against Giardia intestinalis IMSS:0981:1 trophozoites after 48 hrs; assay type: functional, organism-based; details: Giardia duodenalis
[2] = tested on: Trichomonas vaginalis; assay: Antiprotozoal activity against Trichomonas vaginalis GT3 trophozoites after 48 hrs; assay type: functional, organism-based; details: GT3, 48 h

Row | SMILES | IC50 [1] [nM] | IC50 [2] [nM]
1 | CC(O)c1nc2cc(Cl)c(Cl)cc2n1C (stereo not given) | 20.3 | 40.7
2 | Cn1c(C(N)=O)nc2ccccc21 | 94.2 | 166
3 | Cn1c(C(N)=O)nc2ccc(Cl)cc21 | 76.3 | 109
4 | CC(O)c1nc2ccc(Cl)cc2n1C (stereo not given) | 71.2 | 109
5 | CCOC(=O)c1nc2ccccc2n1C | 68.6 | 85.7
6 | CC(=O)c1nc2cc(Cl)c(Cl)cc2n1C | 34.9 | 63.7
7 | CC(O)c1nc2ccccc2n1C (stereo not given) | 68.1 | 167
8 | CNC(=O)c1nc2ccc(Cl)cc2n1C | 71.5 | 105
9 | CN(C)C(=O)c1nc2cc(Cl)c(Cl)cc2n1C | 73.5 | 75.3
10 | CN(C)C(=O)c1nc2cc(Cl)ccc2n1C | 244 | 210
11 | CCOC(=O)c1nc2cc(Cl)ccc2n1C | 39.8 | 27.2
12 | CNC(=O)c1nc2cc(Cl)c(Cl)cc2n1C | 151 | 225
13 | CN(C)C(=O)c1nc2ccccc2n1C | 512 | 430
14 | CCCSc1ccc2[nH]c(NC(=O)OC)nc2c1 [ALBENDAZOLE] |  | 1590
15 | Cc1ncc([N+](=O)[O-])n1CCO [METRONIDAZOLE] |  | 236

The remaining compounds from weak to strong by IC50 [2], led by results:

Row | IC50 [1] [nM] | IC50 [2] [nM] | SMILES
16 | 358 | 358 | CNC(=O)c1nc2cc(Cl)ccc2n1C
17 | 40 | 238 | CN(C)C(=O)c1nc2ccc(Cl)cc2n1C
18 | 67 | 228 | CC(=O)c1nc2ccc(Cl)cc2n1C
19 | 86.1 | 210 | CC(=O)c1nc2ccccc2n1C
20 | 234 | 186 | Cn1c(C(N)=O)nc2cc(Cl)ccc21
21 | 462 | 134 | Cn1c(C(N)=O)nc2cc(Cl)c(Cl)cc21
22 | 50.3 | 132 | CC(=O)c1nc2cc(Cl)ccc2n1C
23 | 60.8 | 108 | CNC(=O)c1nc2ccccc2n1C
24 | 37.9 | 94.9 | CC(O)c1nc2cc(Cl)ccc2n1C (stereo not given)
25 | 27.5 | 29.3 | CCOC(=O)c1nc2cc(Cl)c(Cl)cc2n1C
26 | 48.2 | 18.9 | CCOC(=O)c1nc2ccc(Cl)cc2n1C
